Legend:
CT DNA = test: Study of the DNA-interaction by cyclic voltammetry; assay type: binding, calf; conditions: for Epa(f), anodic potential / Epc(f), cathodic potential / Epa(b), anodic potential / Epc(b), cathodic potential: M(II)/M(I), 1:2 DMSO/buffer; for Epa(f), anodic potential / Epc(f), cathodic potential: absence of CT DNA; for Epa(b), anodic potential / Epc(b), cathodic potential: presence of CT DNA; for Kr/Kox, ratio of equilibrium DNA-binding constants (reduced/oxidized form): eq. S6
Protocol: Cyclic voltammetry was used to study the interaction of the complexes with CT DNA. An intercalative interaction will induce a positive shift for the electrochemical potential(s) of metal oxidation/reduction, whereas, in the case of electrostatic interaction, a negative shift in the potential(s) may occur. The cyclic voltammograms of the complexes in a 1:2 DMSO:buffer solution (0.33 mM) were recorded in the absence and presence of the CT DNA solution (Figure S13). The predominant electrochemical feature for all complexes is a positive shift in the potential in the presence of CT DNA (ΔEpc/a = (–30)–(+127) mV). Consequently, the intercalative nature of the interaction of the complexes with DNA can be inferred from the presented data.
In order to evaluate further the redox behavior of the complexes, the corresponding equilibrium constants were calculated by determining the ratio Kr/Kox in accordance to Equation (S6), where Kox and Kr are the DNA-binding constants for the oxidized and reduced form, respectively, of the metal ions. For all complexes, the Kr/Kox ratio is close to or above 1 (Table 7), showing the selective binding of DNA to the […] form of the complexes. […]
S3.3 Study of the DNA –interaction by cyclic vol ta mmetry
Cyclic voltammetr y can be also used in order to calculate the corresponding equilibrium constant for the redox process. The ratio of the DNA–binding constants for the reduced (K r) and oxidized forms (Kox) of t he complex es (Kr/Kox) w as calculat ed according t o eq. S6:
Δ = = 0.059 × lo gEE E K oxoo o (eq. S6) […]
where Eo and Eo are the formal potentials of M(II)/M(I) redox couple in the fully bound and […]
free complexes, respectivel y. Kox and Kr are the binding constants for the binding of the oxidized and reduced species to DNA, respectivel y [S8] . […]

EB–DNA adduct (CT DNA) = test: Competitive study with EB (EB–DNA fluorescence quenching); assay type: binding, calf; conditions: for Ksv, Stern–Volmer constant: EB–DNA adduct; for ΔI/Io, percentage of EB–DNA fluorescence quenching: [EB] = 20 μM, [DNA] = 26 μM, λexc 540 nm, λem 592 nm; for EB–DNA relative fluorescence emission intensity, % of the initial (I/Io): λemission = 592 nm, final value (up to), Figure S14; for kq, EB–DNA quenching constant: τo = 23 ns
Protocol: Ethidium bromide is a typical marker of intercalation because it can intercalate between adjacent DNA bases with its planar phenanthridine ring.
The fluorescence emission spectra of the EB–DNA adduct ([EB] = 20 μM, [DNA] = 26 μM) in the absence and presence of the compounds were recorded at increasing amounts of the respective compounds. […] As a conclusion, an intercalative interaction of the complexes with CT DNA can be proposed.
The values of the Stern–Volmer constants (Ksv) for the compounds were calculated using the linear Stern–Volmer equation (Equation (S2)) and were of the order of 10^5 M^−1 (Table 8), indicating tight binding of the complexes with DNA [61]. The Ksv values for the complexes are in the range found for a number of metal(II)–quinolone complexes, and complex 12 presents the highest Ksv value (Ksv = 7.25(±0.30) × 10^5 M^−1) among the compounds studied. In addition, the EB–DNA quenching constants (kq) for the compounds were calculated with Equation (S3), assuming τo = 23 ns as the fluorescence lifetime. The values of kq (Table 8) are much higher than the value of 10^10 M^−1s^−1, indicating a static mechanism of EB–DNA fluorescence quenching induced by the compounds, which can result from the formation of a new adduct apparently consisting of each complex and DNA [61].
In order to determine and confirm the DNA–binding mode of the compounds, a competitive study with EB as an intercalating marker is performed b y fluorescence emission spectroscopy.
Therefo re, the E B–displacing abilit y of the compounds from its EB –DN A conjugate was ex amined.
The DNA–EB adduct was prepared b y addition of 20 μM EB and 26 μM CT DNA in buffer solution (150 mM NaCl and 15 mM trisodium citrate at pH 7.0). The potential intercalation of the compounds between the DNA–bases was studied by the addition of a certain amount of the compound solution into the EB–DNA adduct solution. The influence of the compounds on the EB – DNA solution was monitored through the changes of the fluorescence emission spectra at excitation […]
wavelen gth (λex ) at 540 nm [S3]. […]
room temperature in solution or in the presence of DNA, under the same experimental conditions (λex = 540 nm). Bearing t hat in mind, the observed quenching of the EB–DNA solution is evidentl y associated to the displacement of EB from its EB–DNA adduct.
The quenching effici ency (KSV) for each compound was assessed according to the Stern – Volmer equation: Io =1+ k τ [Q] = 1+ K [Q], (eq. S2) [S3] where I0 and I = the fluorescence […]
emission intensities of EB–DNA in the absence and presence of the quencher, respectivel y, [Q] = the concentration of the quencher (i.e. compounds). KSV is obtained from t he Stern–Volmer plots b y the slope of the diagram I0/ I versus [Q]. Taking τ0 = 23 ns as the fluorescence lifetime of the EB– DNA s ystem [S5], the EB –DNA quenching constants (k q) of the compounds can be determined accordin g to eq.S3: K SV = kqτo . […]
[S2] Irgi, E.P.; Geromichalos, G.D.; Balala, S.; Kljun, J.; Kalogiannis, S.; Papadopoulos, A.; Turel, I.; Psomas, G. Cobalt(II) complexes with quinolone antimicrobial drug oxolinic acid: […]
[ S 5] Heller, D.P.; Greenstock, C.L. Fluorescence lifetime analysis of DNA intercalated ethidium bromide and quenching by free d ye. Biophys. Chem . 1994, 50, 305–312.

SMILES	Epa(f), anodic potential (CT DNA)	Epc(f), cathodic potential (CT DNA)	Epa(b), anodic potential (CT DNA)	Epc(b), cathodic potential (CT DNA)	Kr/Kox, ratio of equilibrium DNA-binding constants (reduced/oxidized form) (CT DNA)	Ksv, Stern–Volmer constant (EB–DNA adduct (CT DNA))	ΔI/Io, percentage of EB–DNA fluorescence quenching (EB–DNA adduct (CT DNA))	EB–DNA relative fluorescence emission intensity, % of the initial (I/Io) (EB–DNA adduct (CT DNA))	kq, EB–DNA quenching constant (EB–DNA adduct (CT DNA))
CN1CCN(c2c(F)cc3c(=O)c(C(=O)[O-])cn(CCF)c3c2F)CC1.CN1CCN(c2c(F)cc3c(=O)c(C(=O)[O-])cn(CCF)c3c2F)CC1.O.O.[Mn+2] [complex 2, [Mn(flrx)2(H2O)2]]	−455 mV	−684 mV	−466 mV	−678 mV	0.96	6.07(±0.23) × 10^5 M^–1	74.4%	15.6%	2.64(±0.10) × 10^13 M^−1s^−1
CN1CCN(c2c(F)cc3c(=O)c(C(=O)[O-])cn(CCF)c3c2F)CC1.CN1CCN(c2c(F)cc3c(=O)c(C(=O)[O-])cn(CCF)c3c2F)CC1.[Ni+2].c1cnc2c(c1)ccc1cccnc12 [complex 19, [Ni(flrx)2(phen)]]	−489 mV	−706 mV	−460 mV	−718 mV	1.15	3.18(±0.14) × 10^5 M^–1	68.1%	31.9%	1.38(±0.05) × 10^13 M^−1s^−1
CN1CCN(c2c(F)cc3c(=O)c(C(=O)[O-])cn(CCF)c3c2F)CC1.CN1CCN(c2c(F)cc3c(=O)c(C(=O)[O-])cn(CCF)c3c2F)CC1.[Ni+2].c1ccc(Nc2ccccn2)nc1 [complex 18, [Ni(flrx)2(bipyam)]]	−523 mV	−695 mV	−512 mV	−689 mV	1.15	3.02(±0.13) × 10^5 M^–1	59.3%	–	1.31(±0.05) × 10^13 M^−1s^−1
CN1CCN(c2c(F)cc3c(=O)c(C(=O)[O-])cn(CCF)c3c2F)CC1.CN1CCN(c2c(F)cc3c(=O)c(C(=O)[O-])cn(CCF)c3c2F)CC1.[Co+2].c1ccc(Nc2ccccn2)nc1 [complex 16, [Co(flrx)2(bipyam)]]	−466 mV	−729 mV	−445 mV	−741 mV	1.08	3.77(±0.12) × 10^5 M^–1	70.7%	29.3%	1.64(±0.05) × 10^13 M^−1s^−1
CN1CCN(c2c(F)cc3c(=O)c(C(=O)[O-])cn(CCF)c3c2F)CC1.CN1CCN(c2c(F)cc3c(=O)c(C(=O)[O-])cn(CCF)c3c2F)CC1.[Cu+2] [complex 1, [Cu(flrx)2]]	−504 mV	−725 mV	−462 mV	−735 mV	1.31	2.18(±0.06) × 10^5 M^–1	62.2%	37.8%	9.47(±0.03) × 10^12 M^−1s^−1
CN1CCN(c2c(F)cc3c(=O)c(C(=O)[O-])cn(CCF)c3c2F)CC1.CN1CCN(c2c(F)cc3c(=O)c(C(=O)[O-])cn(CCF)c3c2F)CC1.[Mn+2].c1ccc(-c2ccccn2)nc1 [complex 9, [Mn(flrx)2(bipy)]]	−475 mV	−701 mV	−495 mV	−684 mV	0.97	3.31(±0.07) × 10^5 M^–1	73.8%	26.2%	1.44(±0.03) × 10^13 M^−1s^−1
CN1CCN(c2c(F)cc3c(=O)c(C(=O)[O-])cn(CCF)c3c2F)CC1.CN1CCN(c2c(F)cc3c(=O)c(C(=O)[O-])cn(CCF)c3c2F)CC1.[Co+2].c1ccc(-c2ccccn2)nc1 [complex 15, [Co(flrx)2(bipy)]]	−533 mV	−701 mV	−541 mV	−695 mV	0.98	4.69(±0.09) × 10^5 M^–1	80.4%	19.6%	2.04(±0.04) × 10^13 M^−1s^−1
CN1CCN(c2c(F)cc3c(=O)c(C(=O)[O-])cn(CCF)c3c2F)CC1.CN1CCN(c2c(F)cc3c(=O)c(C(=O)[O-])cn(CCF)c3c2F)CC1.[Mn+2].c1cnc2c(c1)ccc1cccnc12 [complex 11, [Mn(flrx)2(phen)]]	−501 mV	−706 mV	−499 mV	−700 mV	1.07	1.83(±0.03) × 10^5 M^–1	76.7%	23.3%	7.94(±0.14) × 10^12 M^−1s^−1

Reference: publication PMC9144902, “Metal(II) Complexes of the Fluoroquinolone Fleroxacin: Synthesis, Characterization and Biological Profile” (Pharmaceutics, 2022)
